Reference: PubChem BioAssay (NCI)
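Five compound concentrations were applied to cells in 96-well plates for 48 hours; endpoints were derived by simple linear interpolation of the resulting dose-response curve. The concentration for full growth arrest is given as TGI.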 Where a SMILES comes first, the peptide text is derived from it. [ ]: non-standard residue; d: D form. pGlu = O=C1CC[CH](C(=O)O)N1

Assays:
Assay in all cases: inhibition of tumour cell growth, NCI panel, 48 h
ACHN renal = system: ACHN renal
SK-MEL-28 melanoma = system: SK-MEL-28 melanoma
SF-268 CNS = system: SF-268 CNS
KM12 colon = system: KM12 colon
COLO 205 colon = system: COLO 205 colon
CCRF-CEM leukemia = system: CCRF-CEM leukemia
TK-10 renal = system: TK-10 renal
SK-MEL-5 melanoma = system: SK-MEL-5 melanoma
UACC-257 melanoma = system: UACC-257 melanoma
T-47D breast = system: T-47D breast
UO-31 renal = system: UO-31 renal
BT-549 breast = system: BT-549 breast
HCT-116 colon = system: HCT-116 colon
K-562 leukemia = system: K-562 leukemia
HOP-62 NSCLC = system: HOP-62 NSCLC
RPMI-8226 leukemia = system: RPMI-8226 leukemia
HL-60(TB) leukemia = system: HL-60(TB) leukemia

Row | SMILES | TGI (ACHN renal) | TGI (SK-MEL-28 melanoma) | TGI (SF-268 CNS) | TGI (KM12 colon) | TGI (COLO 205 colon) | TGI (CCRF-CEM leukemia) | TGI (TK-10 renal) | TGI (SK-MEL-5 melanoma) | TGI (UACC-257 melanoma) | TGI (T-47D breast) | TGI (UO-31 renal) | TGI (BT-549 breast) | TGI (HCT-116 colon) | TGI (K-562 leukemia) | TGI (HOP-62 NSCLC) | TGI (RPMI-8226 leukemia) | TGI (HL-60(TB) leukemia)
1 | CCOC(=O)C1=CC(C)(C(=O)OCC)Nc2c(nc(SC)n(C)c2=O)N1 (centres undefined) | > 10 µM | > 10 µM | > 10 µM | > 10 µM | > 10 µM | > 10 µM | > 10 µM | > 10 µM | > 10 µM | > 10 µM | > 10 µM | > 10 µM | > 10 µM | > 10 µM | > 10 µM | > 10 µM | 
2 | Cc1oncc1NC1=CC(=O)C(=O)c2ccccc21 | 16.7 µM | 29.2 µM | 30.3 µM | 42.1 µM | 37.1 µM | 15 µM | 45.2 µM | 3.68 µM | 9.34 µM | 11.5 µM | 27.9 µM | 25 µM | 10.6 µM | 27 µM | 36.8 µM |  | 7.06 µM
3 | CCCCCCCCCCCCCCCCCCOc1ccc(/C=C/C2=[N+](CCCl)CCO2)cc1 | > 100 µM | > 100 µM |  | > 100 µM | > 100 µM | > 100 µM | > 100 µM | > 100 µM | > 100 µM | > 100 µM | > 100 µM | > 100 µM | > 100 µM | > 100 µM | > 100 µM | > 100 µM | > 100 µM
4 | CC(NC(=O)C(Cc1cnc[nH]1)NC(=O)C1CCC(=O)N1)C(N)=O (stereo not drawn) ([pGlu]-His-Ala-NH2; configuration not given here) | > 100 µM | > 100 µM | > 100 µM | > 100 µM | > 100 µM | > 100 µM | > 100 µM | > 100 µM |  | > 100 µM | > 100 µM | > 100 µM | > 100 µM | > 100 µM | > 100 µM | > 100 µM | > 100 µM
5 | Cc1cc2c(cc1-c1cc3c(cc1C)C(C(C)C)=C(O)C(=O)/C3=C\Nc1c(C)n(C)n(-c3ccccc3)c1=O)/C(=C/Nc1c(C)n(C)n(-c3ccccc3)c1=O)C(=O)C(O)=C2C(C)C | > 100 µM | > 100 µM | > 100 µM | > 100 µM | > 100 µM | > 100 µM |  | > 100 µM | > 100 µM | > 100 µM | > 100 µM | > 100 µM | > 100 µM | > 100 µM | > 100 µM | > 100 µM | > 100 µM
6 | C=CC[C@@H]1C=C[C@@H](C(=O)OC)n2c(=O)n(-c3ccccc3)c(=O)n21 | > 100 µM | > 100 µM | > 100 µM | > 100 µM | > 100 µM | > 100 µM | > 100 µM | > 100 µM | > 100 µM | > 100 µM | > 100 µM | > 100 µM | > 100 µM | > 100 µM | > 100 µM | > 100 µM | 
7 | COc1ccc(-c2nnc(-c3ccncc3)o2)cc1 | > 100 µM | > 100 µM | > 100 µM |  | > 100 µM | > 100 µM | > 100 µM | > 100 µM | > 100 µM | > 100 µM | > 100 µM | > 100 µM | > 100 µM | > 100 µM | > 100 µM | > 100 µM | > 100 µM
8 | CCCCNC(=S)c1ccc(OC(=O)Nc2ccc(Cl)cc2)cc1 | > 100 µM | > 100 µM | > 100 µM | > 100 µM | 57.5 µM | > 100 µM |  | > 100 µM | > 100 µM | > 100 µM | > 100 µM | > 100 µM | > 100 µM | > 100 µM | > 100 µM | > 100 µM | > 100 µM
9 | Cc1c(O)c(=O)ccn1CCc1c[nH]c2ccccc12 | 23.5 µM |  | 8.77 µM | > 100 µM | 73.9 µM |  | > 100 µM | 24.1 µM | 15.5 µM | 78 µM |  | > 100 µM | > 100 µM | 66.7 µM | > 100 µM | 29.8 µM | 53.3 µM
10 | CC(O)c1cc2c(s1)C(=O)c1scc(C(C)O)c1C2=O (centres undefined) | 2.47 µM | 0.62 µM | 0.889 µM |  | 3.66 µM | > 100 µM | 3.37 µM | 0.351 µM | 0.356 µM | 4.53 µM | 1.41 µM | 0.403 µM | 2.64 µM | > 100 µM |  | 0.626 µM | > 100 µM
11 | COc1ccc(/C=N\NC(=O)Nc2cccc3ccccc23)cc1 | 66.6 µM | > 100 µM | > 100 µM | > 100 µM | > 100 µM | > 100 µM | 43.9 µM | > 100 µM | > 100 µM | 38.2 µM | > 100 µM | > 100 µM | > 100 µM |  | 26.5 µM | > 100 µM | 
12 | O=C(O)CN(CC(=O)O)Cc1ccn(-c2cccc(-n3ccc(CN(CC(=O)O)CC(=O)O)n3)n2)n1 | > 100 µM | > 100 µM | > 100 µM | > 100 µM | > 100 µM |  | > 100 µM | > 100 µM | > 100 µM | > 100 µM | > 100 µM | > 100 µM | > 100 µM |  | > 100 µM | > 100 µM | > 100 µM
13 | NC(=O)c1ncn2c(=O)n(CCl)nnc12 | > 100 µM | > 100 µM | > 100 µM | > 100 µM | > 100 µM | > 100 µM | > 100 µM | > 100 µM | > 100 µM | > 100 µM | > 100 µM | > 100 µM | > 100 µM | > 100 µM | > 100 µM | > 100 µM | 
14 | C[C@]12CC[C@H](O)CC1=CC[C@@H]1[C@@H]2CC[C@]2(C)c3nc(Cl)ccc3C[C@@H]12 | > 100 µM | > 100 µM | > 75.7 µM | > 100 µM | > 100 µM | > 50.4 µM | > 100 µM | > 100 µM | > 100 µM | > 100 µM |  | > 100 µM | > 100 µM | > 100 µM | > 67.6 µM | > 100 µM | > 100 µM
